The values below come from ChEMBL document CHEMBL5150056, “Synthesis and antibiofilm evaluation of N-acyl-2-aminopyrimidine derivatives against Acinetobacter baumannii” (Bioorg Med Chem, 2022).

Test [1] deals with Acinetobacter baumannii. The test can be described thus: Antibacterial activity against Acinetobacter baumannii S1 assessed as planktonic growth inhibition incubated for 18 to 24 hrs by CLSI protocol based assay. In kind it is functional. As to conditions: time 18-24 hrs.
Test [2] concerns Acinetobacter baumannii. Nature of the test: Antibiofilm activity against Acinetobacter baumannii S1 assessed as inhibition rate of biofilm formation at 100 uM incubated for 18 to 24 hrs by crystal violet staining based assay (reference value: 28.8 +/- 8.21%). Also noted: scale not given: the % may be the effect or the level left. In kind it is functional. Conditions: time 18-24 hrs.

With `CCCCCCCCCCCCCC(=O)Nc1nc(C)cc(O)n1`, the MIC (as a rule, the smallest concentration in the dilution series that meets the test's criterion for growth inhibition) in test [1] was more than 256 µg/mL. In addition, the Activity in test [2] is 37.8%.

As to `CC(C)CC(=O)Nc1ncccn1`, the MIC in test [1] was more than 256 µg/mL. Besides, in test [2], the Activity is listed as 3.8%. `CCCCCCCCCCCCCC(=O)Nc1ncccn1`: the MIC in test [1] was more than 256 µg/mL. In addition, the Activity in test [2] came out at 36.3%. On to `O=C(Nc1ncccn1)c1ccccc1`, for which, in test [1], the MIC was more than 256 µg/mL. Moreover, the Activity in test [2] is listed as 28%. Regarding `CCCCCCCCCCCCCC(=O)Nc1nccc(C)n1`, the MIC in test [1] is more than 256 µg/mL. Further, the Activity in test [2] is 26.9%. As to `O=C(Cc1cccs1)Nc1ncccn1`, the MIC in test [1] is more than 256 µg/mL. Moreover, the Activity in test [2] was 5.5%.

As to `Cc1cc(C)c(C(=O)Nc2ncccn2)c(C)c1`, in test [1], the minimal inhibitory concentration (MIC) was more than 256 µg/mL. Also, in test [2], the Activity is given as 26.9%. For `CCCCCCCCCCCCCC(=O)Nc1nc(Cl)cc(N(C)C)n1`, the MIC in test [1] is more than 256 µg/mL. The Activity in test [2] was determined as 40.5%. For `CCCCCCCCCCCCCC(=O)Nc1nccc(N)n1`, the MIC in test [1] was more than 256 µg/mL. Besides, the Activity in test [2] was found to be 35.8%. As to `CC(C)(C)C(=O)Nc1ncccn1`, the MIC in test [1] is more than 256 µg/mL. The Activity in test [2] is 12.3%. For `CCCCCC(=O)Nc1ncccn1`, the MIC in test [1] was more than 256 µg/mL. In test [2], the Activity was 23.3%. On to `CCCCCCCCCCCCCC(=O)Nc1nc(F)cc(F)n1`, for which, in test [2], the Activity was found to be 20.8%. Consider `O=C(Nc1ncccn1)c1cccc2ccccc12`, for which the MIC in test [1] was more than 256 µg/mL. In addition, the Activity in test [2] amounted to 9.4%. For `O=C(CCc1ccccc1)Nc1ncccn1`, in test [1], the MIC was more than 256 µg/mL. The Activity in test [2] was -0.2%.

Regarding `CCCCCCCCCCCCCC(=O)Nc1ncc(Br)cn1`, the MIC in test [1] is more than 256 µg/mL. For the same molecule, the Activity in test [2] is 31.1%.

As for `CCCCCCCCCCCCCC(=O)Nc1nc(N)cc(F)n1`, the Activity in test [2] is given as 53.1%. Consider `CCCCCCCCCCCCCC(=O)Nc1nc(Cl)cc(NC)n1`, for which, in test [1], the MIC was more than 256 µg/mL. In addition, the Activity in test [2] came to 27%. Take `CCCCCCCCCCCCCC(=O)Nc1nc(Cl)cc(OC)n1`: the MIC in test [1] was more than 256 µg/mL. In addition, the Activity in test [2] is recorded as 49.5%.

On to `CCCCCCCCCCCCCC(=O)Nc1ncc(Cl)cn1`, for which the MIC in test [1] was more than 256 µg/mL. The Activity in test [2] turned out to be 40.5%. `CCOC(=O)CCC(=O)Nc1ncccn1`: the MIC in test [1] is more than 256 µg/mL. Moreover, the Activity in test [2] is reported as 19.1%. `CCCCCCCC(=O)Nc1ncccn1`: in test [1], the MIC is more than 256 µg/mL. Besides, the Activity in test [2] amounted to 17.8%. The corresponding values for `CCCCCCCCCCCCCC(=O)Nc1nc(C)cc(Cl)n1` are more than 256 µg/mL and 46.6%. The corresponding values for `CCCCCCCCCCCCCCCC(=O)Nc1ncccn1` are more than 256 µg/mL and 22.5%. With `O=C(Nc1ncccn1)c1ccc([N+](=O)[O-])cc1`, in test [1], the MIC was more than 256 µg/mL. In test [2], the Activity is recorded as 25.1%. For `O=C(/C=C/c1ccccc1)Nc1ncccn1`, the MIC in test [1] is more than 256 µg/mL. Further, in test [2], the Activity was determined as 13.6%. The matching figures for `CCCCCCCCCCCCCC(=O)Nc1nc(OC)cc(OC)n1`: more than 256 µg/mL and 59.3%. Take `CCCC(=O)Nc1ncccn1`: the MIC in test [1] was more than 256 µg/mL. Moreover, the Activity in test [2] is 28.3%. As to `CCCCCCCCCCCCCC(=O)Nc1nc(Cl)cc(Cl)n1`, in test [1], the MIC was more than 256 µg/mL. The Activity in test [2] is reported as 63.1%. `CCCCCCCCCCCCCC(=O)Nc1nc(Cl)c(Cl)c(Cl)n1`: the MIC in test [1] was more than 256 µg/mL. The Activity in test [2] came to 32%. Take `CCCCCCCCCCCCCC(=O)Nc1ncc(Cl)c(Cl)n1`: the MIC in test [1] is more than 256 µg/mL. Besides, the Activity in test [2] is 30.9%. As to `CCCCCCCCCC(=O)Nc1ncccn1`, the MIC in test [1] was more than 256 µg/mL. Further, the Activity in test [2] is reported as 33.2%.

For the molecule `CCCCCCCCCCCCCC(=O)Nc1nc(Cl)cc(N2CCOCC2)n1`, the MIC in test [1] was more than 256 µg/mL. Besides, the Activity in test [2] was found to be 28.5%. With `CCCCCCCCCCCCCC(=O)N1CCN(c2ncccn2)CC1`, in test [1], the MIC is more than 256 µg/mL. The Activity in test [2] is given as 27.9%.
